Values quoted from earlier work as cited in patent publication US8524749B2, “Controlled release compositions of tizanidine” (ALZA Corporation, priority 2007, dated 2013).

Details: doses of 0.5-0.7 g/kg alcohol; comparison data

Peak impairment in Power of Attention, decrement compared to baseline: about 150 msec
Compound: CCO [alcohol]
